Data set [1] addresses T1, IDH2 (R172K, 40-end) (Homo sapiens, UniProt P48735, R172K).
T1 sequence (P48735 40-452 R172K): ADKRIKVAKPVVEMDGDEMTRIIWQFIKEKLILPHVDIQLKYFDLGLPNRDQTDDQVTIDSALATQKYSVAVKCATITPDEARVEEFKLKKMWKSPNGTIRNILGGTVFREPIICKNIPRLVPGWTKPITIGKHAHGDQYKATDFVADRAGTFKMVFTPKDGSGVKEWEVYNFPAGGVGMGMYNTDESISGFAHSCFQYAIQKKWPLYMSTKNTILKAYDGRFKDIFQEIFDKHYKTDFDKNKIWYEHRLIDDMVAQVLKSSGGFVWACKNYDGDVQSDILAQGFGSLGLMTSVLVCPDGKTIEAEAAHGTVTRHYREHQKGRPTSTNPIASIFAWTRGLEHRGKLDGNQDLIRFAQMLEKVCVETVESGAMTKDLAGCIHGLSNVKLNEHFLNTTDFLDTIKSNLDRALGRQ
The experiment in a line: Inhibitory activity test against IDH2 (NADPH decrease, diaphorase/resazurin fluorescence). It counts as biochemical. How it is done: The inhibitory activity of the compound of the present application against IDH2 (R172K, 40-end) was determined by using the following method.
The inhibitory activity of a compound against IDH2 (R172K, 40-end) was determined by the decrease of a helper factor NADPH (reduced coenzyme II). The test compound was pre-incubated with an enzyme and NADPH, and then a reaction was initiated by the addition of a-KG, and performed for 120 minutes under a linear condition. Then, the reaction was terminated by the addition of diaphorase (lipoamide dehydrogenase) and the corresponding substrate resazurin. Diaphorase terminated the IDH2m reaction by decreasing the available helper factor NADPH, which oxidized NADPH to NADP (oxidized coenzyme II), and reduced resazurin to highly fluorescent resorufin. The amount of remaining helper factor NADPH after a specific reaction time was quantified via an easily detectable fluorophore.
Specifically, 2.5 μl of a 3-fold gradient diluted test compound was added to a 384-well plate, and then 5 μl of a reaction buffer (20 mM Tris-HCl, PH7.5; 150 mM NaCl; 10 mM MgCl2; 10 mM MnCl2; 0.4 mg/ml BSA and 2 mM DTT) containing 80 nM IDH2 (R172K, 40-end) and 40 μM NADPH was added. Then, the resulting test mixture was incubated for 120 minutes at a temperature of 23° C., and then 2.5 μl of the reaction buffer containing 4 mM a-KG was added to initiate the reaction. After incubating for 120 minutes at room temperature, 5 μl of a termination mixture (0.4 U/ml diaphorase and 40 μM resazurin) prepared with the reaction buffer was added to convert resazurin to resorufin to determine the remaining NADPH.

The nature of data set [2]: Pharmacokinetic test in rats, single intragastric dose of 5 mg/kg. The note with it: male rats. It is filed as in vivo. How it is done: Healthy male adult rats (7-9 weeks old) were used, each group of animals (3 male rats) was intragastrically administered once at a single dose of 5 mg/kg. The animals in the intragastric administration group were fasted overnight before this study. The fasting time period was from 10 hours before administration to 4 hours after administration.
Blood samples were taken at 0.25, 0.5, 1, 2, 4, 6, 8 and 24 h after administration. The animals were anesthetized with isoflurane using a small animal anesthesia machine, and then 0.3 mL whole blood samples were taken from the fundus venous plexus. The blood samples were placed in heparin anticoagulant tubes, and centrifuged for 5 min at 4° C. and 4000 rpm. The resulting plasma samples were transferred to centrifuge tubes, and stored at −80° C. until analysis.
Verified liquid chromatography-tandem mass spectrometry (LC-MS/MS) method was used to analyze the plasma samples. Plasma concentration-time data of individual animals were analyzed using WinNonlin (Professional Edition, version 6.3; Pharsight Company) software. The non-compartmental model was introduced for concentration analysis. The pharmacokinetic parameters (PK parameters) of the compounds were calculated.

Data set [3] is described as follows: Pharmacokinetic test in SD rats, intragastric 50 mg/kg of salts and crystalline forms. It is filed as in vivo. The note with it: 50 mg/kg (in free base). How it is done:
Number and gender: 20, males;
Twenty male SPF SD rats were randomly divided into 4 groups, fasted (free access to water) overnight, and then intragastrically administered with 50 mg/kg of the crystalline Form I of the mesylate of the compound of Formula I (Example 11), 50 mg/kg of the crystalline Form II of the mesylate of the compound of Formula I (Example 12), 50 mg/kg of the crystalline Form VIII of the mesylate of the compound of Formula I (Example 19) and 50 mg/kg of the hydrochloride salt of the compound of Formula I (Example 7), respectively (in basic group). Blood samples (0.2˜0.3 mL) were taken from the orbital of the rats at the blood collection time points 0.25 h, 0.5 h, 1 h, 2 h, 3 h, 4 h, 6 h, 8 h, 10 h, 24 h, 30 h and 48 h after administration. The whole blood collected was then placed in EDTA-K2 centrifuge tubes, stored at 4° C., and centrifuged for 10 min at a speed of 4000 rpm at 4° C. within 0.5 h to separate plasma. After the collection of all the plasma, it was stored at −20° C. within 1 h. Pharmacokinetic parameters (PK parameters) were calculated using DAS 3.2.1 software according to the non-compartment statistical moment theory, and the results are shown in Table 15.

Data set [4] in a line: Hygroscopicity test of various salts (Chinese Pharmacopoeia 2010, Part II, Appendix XIX J). It is filed as physicochemical. The note with it: HR = 80% ± 2. The protocol:
The various acid addition salts of the compound of Formula I were tested according to “Guiding Principles for Drug Hygroscopicity Test” described in the Chinese Pharmacopoeia, 2010 edition, Part II, Appendix XIX J. The increased weights by hygroscopy of the samples were calculated respectively, and the results are shown in Table 11.

Data set [5] is described as follows: Stability test of various salts, high temperature and high humidity (Chinese Pharmacopoeia 2010, Part II, Appendix XIX C). It is filed as physicochemical. The note with it: for Purity before test: before high temperature and high humidity test. The protocol: The stability of the various acid addition salts of the compound of Formula I were tested according to the method described in the Chinese Pharmacopoeia, 2010 edition, Part II, Appendix XIX C.

In data set [6] the test system is relapsed and refractory AML. The note with it: cited from earlier work.
[7] abbreviates: listed as The crystalline Form II of the mesylate of the compound of Formula I, 50 mg/kg.
[8] abbreviates: listed as The crystalline Form VIII of the mesylate of the compound of Formula I, 50 mg/kg.
Setting [9] is: male, SD, rat, plasma, po, 50 mg/kg.

Molecules are shown by their SMILES. Where two headings read alike, the source gives them in different places.

For `CC(C)(C)ONc1nc(Nc2ccnc(C(F)(F)F)c2)nc(-c2cccc(C(F)(F)F)n2)n1` [The compound of Formula I, 4-(tert-butoxyamino)-6-(6-(trifluoromethyl)pyridin-2-yl)-N-(2-(trifluoromethyl)pyridin-4-yl)-1,3,5-triazin-2-amine], the “inhibitory activity compared with AG-221 (in words)” value in data set [1] (IDH2 (R172K, 40-end)) was “better inhibitory activity than AG-221”. For the same molecule, the IC50 in data set [1] (IDH2 (R172K, 40-end), 80 nM enzyme, 40 μM NADPH, read-out: IC50) was determined as 32 nM. Further, in data set [2], the “half-life (in words)” value is on record as “long half-life” and the “plasma concentration compared with AG-221 at the same dosage (in words)” value is given as “higher than AG-221”.

For `CC(C)(C)ONc1nc(Nc2ccnc(C(F)(F)F)c2)nc(-c2cccc(C(F)(F)F)n2)n1.CS(=O)(=O)O` [The mesylate (Example 12), 4-(tert-butoxyamino)-6-(6-(trifluoromethyl)pyridin-2-yl)-N-(2-(trifluoromethyl)pyridin-4-yl)-1,3,5-triazin-2-amine methanesulfonic acid salt], in data set [3] (setting [7]), the exposure AUC(0-t) came out at 42249 ng·h/mL, the “AUC(0-∞)” value is 43976 ng·h/mL, the Cmax is listed as 2102 ng/mL and the “MRT(0-t)” value was found to be 15.0 h. In addition, in data set [3] (setting [7]), the T1/2 is reported as 9.53 h and the Tmax was determined as 8.80 h.

For the molecule `CC(C)(C)ONc1nc(Nc2ccnc(C(F)(F)F)c2)nc(-c2cccc(C(F)(F)F)n2)n1.O=S(=O)(O)O` [The sulfate (Example 8)], the “Increased Weights by Hygroscopy” value in data set [4] is 1.3%. For the same molecule, in data set [5], the “Purity after high temperature and high humidity test” value is 93.58%; the Purity before test turned out to be 99.30%.

In turn, `CC(C)(O)CNc1nc(Nc2ccnc(C(F)(F)F)c2)nc(-c2cccc(C(F)(F)F)n2)n1` [AG-221, Enasidenib] returned an IC50 in data set [1] of 68 nM. In data set [6], the “complete remission rate (CR)” value is “up to 27%” and the “overall response rate (ORR)” value is given as “up to 41%”. Moreover, in data set [6] (effective patients), the “effective patients who insist on the treatment for at least 6 months” value is on record as 76% and the “effective patients with a stable condition” value was 44%.

Consider `CC(C)(C)ONc1nc(Nc2ccnc(C(F)(F)F)c2)nc(-c2cccc(C(F)(F)F)n2)n1.Cc1ccc(S(=O)(=O)O)cc1` [The p-toluenesulfonate (Example 9)], for which the “Increased Weights by Hygroscopy” value in data set [4] came to 0.7%. Also, in data set [5], the “Purity after high temperature and high humidity test” value is reported as 97.63%; the Purity before test was found to be 98.79%.

`CC(C)(C)ONc1nc(Nc2ccnc(C(F)(F)F)c2)nc(-c2cccc(C(F)(F)F)n2)n1.CS(=O)(=O)O` [4-(tert-butoxyamino)-6-(6-(trifluoromethyl)pyridin-2-yl)-N-(2-(trifluoromethyl)pyridin-4-yl)-1,3,5-triazin-2-amine methanesulfonic acid salt]: the “Increased Weights by Hygroscopy” value in data set [4] came out at 1.0%. In addition, in data set [5], the “Purity after high temperature and high humidity test” value is on record as 99.22%; the Purity before test stood at 98.82%. Also, in data set [3] (setting [8]), the “AUC(0-t)” value came to 42249 ng·h/mL, the “AUC(0-∞)” value was determined as 43976 ng·h/mL, the Cmax stood at 2102 ng/mL and the “MRT(0-t)” value was determined as 15.0 h. For the same molecule, in data set [3] (setting [8]), the T1/2 is recorded as 9.53 h and the Tmax was 8.80 h. Also, in data set [3] (setting [9]), the area under the curve AUC(0-inf) was found to be 47400 ng·h/mL and the half-life was 624 min. Also, the AUC(0-t) in data set [3] (male, SD, rat, plasma, po, 50 mg/kg, read-out: AUC(0-t)) is 43900 ng·h/mL. Also, the Cmax in data set [3] (male, SD, rat, plasma, po, 50 mg/kg, read-out: Cmax) turned out to be 1730 ng/mL. For the same molecule, in data set [3] (male, SD, rat, plasma, po, 50 mg/kg, read-out: MRT(0-t)), the MRT last was 16.5 h. Besides, the time of peak concentration (Tmax) in data set [3] (male, SD, rat, plasma, po, 50 mg/kg, read-out: Tmax) was determined as 6.6 h.

With `CC(C)(C)ONc1nc(Nc2ccnc(C(F)(F)F)c2)nc(-c2cccc(C(F)(F)F)n2)n1.O=C(O)/C=C\C(=O)O` [Maleate (Example 10)], the “Increased Weights by Hygroscopy” value in data set [4] is given as 2.2%.

In the case of `CC(C)(C)ONc1nc(Nc2ccnc(C(F)(F)F)c2)nc(-c2cccc(C(F)(F)F)n2)n1.Cl` [The hydrochloride salt (Example 7)], in data set [4], the “Increased Weights by Hygroscopy” value amounted to 0.9%. Further, in data set [5], the “Purity after high temperature and high humidity test” value was 99.62%; the Purity before test came to 98.85%. For the same molecule, in data set [3], the “AUC(0-t)” value was 48570.9 ng·h/mL, the “AUC(0-∞)” value was 55252.1 ng·h/mL, the Cmax came out at 1642 ng/mL and the “MRT(0-t)” value was found to be 18.02 h. Moreover, in data set [3], the T1/2 turned out to be 13.67 h and the Tmax is listed as 10.6 h.

These data come from patent US11021464B2, “Crystalline forms of 4-(tert-butoxyamino)-6-(6-(trifluoromethyl)pyridin-2-yl)-N-(2-(trifluoromethyl)pyridin-4-yl)-1,3,5-triazin-2-amine methanesulfonic acid salt” (CHIA TAI TIANQING PHARMACEUTICAL GROUP CO., LTD., priority 2017, dated 2021).
